The results in this text go back to US7763626B2, “Compositions and method for enhancing the therapeutic activity of opiods in treatment of pain” (Trustees of Dartmouth College, priority 2004, dated 2010).

Common to all, as to format: in vivo, rat
Assay [1] deals with Male Sprague-Dawley rats. The assay is described as follows: Hot water tail-flick test, morphine withdrawal-induced thermal hyperalgesia. The method, then:
Male Sprague-Dawley rats (175-200 grams, Harlan, Indianapolis, Ind.) were divided into two groups (n=8 per group). Rats received subcutaneous injections of either saline or morphine (10 mg/kg; Sigma, St. Louis, Mo.) twice daily at 0800 to 0900 and 1600-1700 hour for 5 days in order to induce opioid tolerance. Chronic morphine withdrawal-induced hyperalgesia and allodynia were assessed in the animals 16 hours after the last injection of morphine. Following the recording of morphine withdrawal-induced hyperalgesia and allodynia, animals were treated with morphine (5 microgram) acutely via lumbar intrathecal injection to study the expression of morphine tolerance. Acute analgesic activity or intrathecal morphine in morphine-tolerant and chronic aline-treated rats were evaluated by mechanical (Analgesy-Meter) and thermal (tail-flick) test paradigms. Behaviors recorded prior to the acute administration of intrathecal morphine served as the basal latency measures.
With an understanding of the effects of morphine alone, separate groups of rats (n=8) received with saline or morphine (10 mg/kg subcutaneously, twice daily for 5 days) and also received once daily injections (at 1100 to 1200 hour) of propentofylline (1 and 10 micrograms) or saline via direct lumbar puncture during the induction of morphine tolerance. Again, chronic morphine withdrawal-induced hyperalgesia and allodynia were assessed in the animals 16 hours after the last subcutaneous morphine injection. Following the recording of morphine withdrawal-induced hyperalgesia and allodynia, animals were treated with morphine (5 micrograms) acutely via lumbar puncture to study the expression of morphine tolerance. As before, the acute analgesic activity of intrathecal morphine in morphine-tolerant and saline-injected rats was evaluated by mechanical (Analgesy-Meter) and thermal (tail-flick) test paradigms. Behavior recorded prior to the acute administration of intrathecal morphine served as the basal latency.
Thermal nociceptive thresholds were evaluated by the hot water tail-flick test that has been described previously (Bian, D. et al. 1999. Brain Res. 831:55-63). The test consisted of immersing the tail of the rats in water maintained at 49° C. and then recording the latency to a rapid flick. A 15 second cut-off time was used. Again, the total number of responses elicited during three successive trials separated by at least 10 minutes was recorded and then expressed as the % maximal possible effect. The tester was again blinded to the test groups.
On the technique in general: Thermal pain tests record how soon the animal reacts.

For assay [2], the system named is Male Sprague-Dawley rats. The assay is described as follows: L5 spinal nerve transection model, mechanical allodynia. The method, then: Experiments were performed to determine how propentofylline-induced suppression of glial activation contribute to reduced behavioral hypersensitivity after nerve injury. In a preventative paradigm, 10 μg of propentofylline (Sigma) to male Sprague-Dawley rats in 40 μl of sterile saline, or saline vehicle alone was administered intrathecally (i.t.) by lumbar puncture at the L4/5 level under brief halothane anesthesia (n=6-8/group). Treatment began one hour prior to L5 spinal nerve transection and continued daily in the evening until day 4 or 12 post-transection. Rats received either an L5 spinal nerve transection or sham surgery on day 0. The development of mechanical allodynia was monitored as described above in the morning at approximately 15 hours post-propentofylline or saline injection. […]
Mechanical sensitivity was measured as the frequency of foot withdrawals elicited by a defined mechanical stimulus. […]
In blinded testing, rats were subjected to sequential series of 10 tactile stimulations to the dorsal surface of the ipsilateral hindpaw using […] von Frey filaments (Stoelting Co., WoodDale, Ill.) sequentially. The number of foot withdrawals to this normally non-noxious stimulus determined mechanical allodynia. Mechanical sensitivity was assessed by recording the total number of responses elicited during three successive trials separated by at least 10 minutes. […]

The test system of another assay is GLAST mRNA. The experiment in a line: Real time RT-PCR of ipsilateral lumbar spinal cord after L5 spinal nerve transection. The settings on record: day 4; compared to L5 spinal nerve transection alone; did not attain statistical significance. The method, then: (§1) Experiments were performed to determine how propentofylline-induced suppression of glial activation contribute to reduced behavioral hypersensitivity after nerve injury. In a preventative paradigm, 10 μg of propentofylline (Sigma) to male Sprague-Dawley rats in 40 μl of sterile saline, or saline vehicle alone was administered intrathecally (i.t.) by lumbar puncture at the L4/5 level under brief halothane anesthesia (n=6-8/group). Treatment began one hour prior to L5 spinal nerve transection and continued daily in the evening until day 4 or 12 post-transection. Rats received either an L5 spinal nerve transection or sham surgery on day 0. The development of mechanical allodynia was monitored as described above in the morning at approximately 15 hours post-propentofylline or saline injection. Rats were euthanized on day 4 or 12 post-transection and tissue was further processed by real time RT-PCR, Western blot, or immunohistochemistry for determination of levels and rate of synthesis of the glutamate transporters GLT-1 and GLAST.
(§2) Tissue was collected from 4-5 rats/group on postoperative days 4 or 12. In order to obtain both mRNA and protein from the same tissue sample, the L5 region of the spinal cord (ipsilateral to the injury), was isolated and placed in PBS supplemented with protease inhibitor cocktail (1:1000, Sigma, St. Louis, Mo.) and RNase inhibitor (0.75 U/μL Ambion, Austin, Tex.). […]
(§3) Real time RT-PCR reactions were carried out in a total reaction volume of 25 uL containing a final concentration of 1.5 U Platinum Taq DNA polymerase (Invitrogen); 20 mM Tris HCl (pH 8.4); 50 mM KCl; 3 mM MgCl2; 200 uM dGTP, dCTP, and dATP; 400 uM dUTP and 1 U of UDG (uracyl DNA glycosylase); 900 nM of forward and reverse primers; 300 nM Taqman probe; and 5 uL of a 10-fold dilution of cDNA (50 ng) from the RT step. […] The iCycler Multicolor Real-Time PCR detection system (Bio-Rad) was used to quantify PCR product. The fluorescence and threshold values obtained were used to compare the relative amount of target mRNA in experimental groups to those of controls (Livak and Schmittgen 2001). […]

The subject of another assay is GLT-1 mRNA. The description is as above. The settings on record: daily intrathecal propentofylline 10 μg. As for the experimental part:
as §1, §2, §3

The structures appear in SMILES notation.

As to `CCCn1cnc2c1c(=O)n(CCCCC(C)=O)c(=O)n2C` [propentofylline], in the assay on Male Sprague-Dawley rats [1] (16 hours after last injection, morphine 10 mg/kg s.c. twice daily 5 days and/or propentofylline 10 micrograms intrathecally once daily 5 days), the Tail-flick latency is 5.1 ± 0.3 s. The “morphine withdrawal-induced noxious thermal hyperalgesia” value in the assay with Male Sprague-Dawley rats [1] (16 hours after last morphine injection (10 mg/kg s.c. twice daily 5 days), propentofylline 1 and 10 micrograms intrathecally for 5 days during induction of tolerance) is given as “significantly attenuated”. In addition, the “development of mechanical allodynia after L5 spinal nerve transection” value in the assay on Male Sprague-Dawley rats [2] (10 μg i.t. daily from one hour prior to transection, 12 g Von Frey filament, all time points, vs L5 saline rats) was “robustly inhibited”. In the assay with Male Sprague-Dawley rats [2] (10 μg i.t. daily, day 5, 7, 9 and 12), the “mechanical allodynia after L5 spinal nerve transection compared with normal group” value was “no longer discernable from the normal group”. Moreover, the “GLAST mRNA level” value in the assay on GLAST mRNA is “slight decrease”. The “GLT-1 mRNA level” value in the assay on GLT-1 mRNA (day 4 post-transection, vs sham-operated and L5 nerve transected rats) is listed as “significantly increased”; in the assay on GLT-1 mRNA (day 12 post-transection, vs L5 nerve transected rats) it was “significantly increased”.
